Reference: patent publication US20130324707A1, “SYNTHETIC AMPHIPHILES FOR MEMBRANE PROTEIN MANIPULATION” (The Board of Trustees of the Leland Stanford Junior …, priority 2009, published 2013)
Marks after values point to notes of the source that are not given here.

Legend:
[1] = Critical micelle concentration (CMC) by fluorescent dye uptake; type: physicochemical
Source text: The Critical Micelle Concentrations (CMCs) of compounds of the invention can be determined by standard techniques known to those of skill in the art. For example, CMCs of the carbohydrate-based amphiphiles described herein can be determined by monitoring uptake of a fluorescent dye (e.g., a dye such as 1,6-diphenylhexatriene) with increasing detergent concentration, monitored by fluorescence spectroscopy.

[2] = test system: human β2 adrenergic receptor-T4-lyosome fusion protein (β2AR-T4L); test: Thermal stabilization (Tm) of β2AR-T4L in amphiphile, normalized peak ratio 341 nm/356 nm; design: Tm: unit: °C; settings: for Tm: β2AR-T4L
Source text: FIG. 3 illustrates the results of comparing MNGs to MPAs at 10×CMC for stabilization efficacy of β2 adrenergic receptor-T4-lyosome fusion protein (β2AR-T4L), according to an embodiment of the invention.
FIG. 4 illustrates the results of comparing MNGs to MPAs at 50×CMC for stabilization efficacy of β2AR-T4L, according to an embodiment of the invention. Similar to FIG. 3, the horizontal dotted line extending from 50% on the y-axis in FIG. 4 indicates the melting temperature (Tm).
The branched amphiphiles of the invention have shown to have several advantageous properties that match or surpass those of many known amphiphiles. The branched nature provide improved stabilization, attributable to the dual saccharide chains, and improved solubilization, attributable to the dual hydrophobic tail groups. FIGS. 3 and 4 show a comparative study showing normalized peak ratios (341 nm/356 nm) for six different amphiphiles (illustrated in Schemes F and G) from 25° C. to 85° C., at 10×CMC and 50×CMC for human β2 adrenergic receptor-T4-lyosome fusion protein (β2AR-T4L).

[3] = 10 × CMC, scan from 25° C. to 85° C.
[4] = concentration not given, matches most favourable (*) Tm minus DDM 63.5

| Structure (SMILES) | CMC [1] [mM] | CMC (%) [1] [%] | ΔTm ([2]; 10 × CMC, relative to DDM) | Tm [2, 3] | ΔTm ([2]; 50 × CMC, relative to DDM) | Tm ([2]; 50 × CMC) | ΔTm [2, 4] |
| --- | --- | --- | --- | --- | --- | --- | --- |
| OCC1OC(OCC(COC2OC(CO)C(O)C(O)C2O)(CSC2CCCCC2)CSC2CCCCC2)C(O)C(O)C1O (centres unmarked) [GNG-1] | 2.1 | 0.13 |  |  |  |  |  |
| O=C(NCC(CNC(=O)C1CCCC1)(COC1OC(CO)C(O)C(O)C1O)COC1OC(CO)C(O)C(O)C1O)C1CCCC1 (centres unmarked) [GNG-4] | 72 | 4.7 |  |  |  |  |  |
| CCCCCCOCC(COCCCCCC)(COC1OC(CO)C(O)C(O)C1O)COC1OC(CO)C(O)C(O)C1O (centres unmarked) [GNG-6] | 1.55 | 0.08 |  |  |  |  |  |
| CCCCCCCOCC(COCCCCCCC)(COC1OC(CO)C(O)C(O)C1O)COC1OC(CO)C(O)C(O)C1O (centres unmarked) [GNG-7] | 0.1 | 0.0092 |  |  |  |  |  |
| OCC1OC(OCC(COC2CCCCC2)(COC2CCCCC2)COC2OC(CO)C(O)C(O)C2O)C(O)C(O)C1O (centres unmarked) [GNG-10] | 17 | 1.07 |  |  |  |  |  |
| OCC1OC(OCC(COC2OC(CO)C(O)C(O)C2O)(CSCCc2ccccc2)CSCCc2ccccc2)C(O)C(O)C1O (centres unmarked) [GNG-11] | 0.82 | 0.06 |  |  |  |  |  |
| CCCCCCC(CCCCCC)(COC1OC(CO)C(O)C(O)C1O)COC1OC(CO)C(O)C(O)C1O (centres unmarked) [GNG-12] | 1.02 | 0.058 |  |  |  |  |  |
| CCCCCC(CCCCC)(COC1OC(CO)C(O)C(O)C1O)COC1OC(CO)C(O)C(O)C1O (centres unmarked) [GNG-13] | 9.64 | 0.373 |  |  |  |  |  |
| CCCCCOCC(COCCCCC)(COC1OC(CO)C(O)C(O)C1O)COC1OC(CO)C(O)C(O)C1O (centres unmarked) [GNG-14] | 13.4 | 0.647 |  |  |  |  |  |
| CCCCCCCCCCC(=O)NCC(CNC(=O)CCCCCCCCCC)(CO[C@H]1OC(CO)[C@H](O[C@@H]2OC(CO)[C@H](O)C(O)[C@H]2O)C(O)[C@H]1O)CO[C@H]1OC(CO)[C@H](O[C@@H]2OC(CO)[C@H](O)C(O)[C@H]2O)C(O)[C@H]1O (some centres unmarked) [MNG-1] | 0.017 | 0.0019 | +1.6 | 65.1 (n = 3)* | +2.1 | 65.1 (n = 3)* | +1.6 |
| CCCCCCCCCCCC(CCCCCCCCCCC)(CO[C@H]1OC(CO)[C@H](O[C@@H]2OC(CO)[C@H](O)C(O)[C@H]2O)C(O)[C@H]1O)CO[C@H]1OC(CO)[C@H](O[C@@H]2OC(CO)[C@H](O)C(O)[C@H]2O)C(O)[C@H]1O (some centres unmarked) [MNG-4] | 0.0037 | 0.00038 | +0.6 | 64.1 (n = 3) | +4.3 | 67.3 (n = 3)* | +3.8 |
| O=C(CCCC1CCCCC1)NCC(CNC(=O)CCCC1CCCCC1)(COC1OC(CO)C(OC2OC(CO)C(O)C(O)C2O)C(O)C1O)COC1OC(CO)C(OC2OC(CO)C(O)C(O)C2O)C(O)C1O (centres unmarked) [MNG-9] | 0.39 | 0.043 |  |  |  |  |  |
| O=C(CCCCC1CCCCC1)NCC(CNC(=O)CCCCC1CCCCC1)(COC1OC(CO)C(OC2OC(CO)C(O)C(O)C2O)C(O)C1O)COC1OC(CO)C(OC2OC(CO)C(O)C(O)C2O)C(O)C1O (centres unmarked) [MNG-10] | 0.053 | 0.0059 |  |  |  |  |  |
| CCCCCCCCCC(=O)NCC(CNC(=O)CCCCCCCCC)(COC1OC(CO)C(OC2OC(CO)C(O)C(O)C2O)C(O)C1O)COC1OC(CO)C(OC2OC(CO)C(O)C(O)C2O)C(O)C1O (centres unmarked) [MNG-13] | 0.043 | 0.0047 |  |  |  |  |  |
| CCCCCCCCCCCCCC(=O)NCC(CNC(=O)CCCCCCC)(COC1OC(CO)C(OC2OC(CO)C(O)C(O)C2O)C(O)C1O)COC1OC(CO)C(OC2OC(CO)C(O)C(O)C2O)C(O)C1O (centres unmarked) [MNG-15] | 0.02 | 0.0022 |  |  |  |  |  |
| CCCCCCCCCCCCCCCC(=O)NCC(CNC(=O)CCCCC)(COC1OC(CO)C(OC2OC(CO)C(O)C(O)C2O)C(O)C1O)COC1OC(CO)C(OC2OC(CO)C(O)C(O)C2O)C(O)C1O (centres unmarked) [MNG-16] | 0.023 | 0.0026 |  |  |  |  |  |
| CCCCCCCCCCCCC(=O)NCC(CNC(=O)CCCCCCCC)(COC1OC(CO)C(OC2OC(CO)C(O)C(O)C2O)C(O)C1O)COC1OC(CO)C(OC2OC(CO)C(O)C(O)C2O)C(O)C1O (centres unmarked) [MNG-17] | 0.02 | 0.002 |  |  |  |  |  |
| CCCCCCCCCCCCCCC(=O)NCC(CNC(=O)CCCCCC)(COC1OC(CO)C(OC2OC(CO)C(O)C(O)C2O)C(O)C1O)COC1OC(CO)C(OC2OC(CO)C(O)C(O)C2O)C(O)C1O (centres unmarked) [MNG-18] | 0.024 | 0.0027 |  |  |  |  |  |
| CCCCCCCC(=O)NCC(CNC(=O)CCCCC1CCCCC1)(COC1OC(CO)C(OC2OC(CO)C(O)C(O)C2O)C(O)C1O)COC1OC(CO)C(OC2OC(CO)C(O)C(O)C2O)C(O)C1O (centres unmarked) [MNG-19] | 0.18 | 0.0194 |  |  |  |  |  |
| CCCCCCCCC(=O)NCC(CNC(=O)CCCCCCCC)(COC1OC(CO)C(OC2OC(CO)C(O)C(O)C2O)C(O)C1O)COC1OC(CO)C(OC2OC(CO)C(O)C(O)C2O)C(O)C1O (centres unmarked) [MNG-20] | 0.3 | 0.0319 |  |  |  |  |  |
| CCCCCCCC(=O)NCC(CNC(=O)C(C1CCCCC1)C1CCCCC1)(COC1OC(CO)C(OC2OC(CO)C(O)C(O)C2O)C(O)C1O)COC1OC(CO)C(OC2OC(CO)C(O)C(O)C2O)C(O)C1O (centres unmarked) [MNG-21] | 0.24 | 0.0268 |  |  |  |  |  |
| O=C(Cc1cc(C(F)(F)F)cc(C(F)(F)F)c1)NCC(CNC(=O)Cc1cc(C(F)(F)F)cc(C(F)(F)F)c1)(COC1OC(CO)C(OC2OC(CO)C(O)C(O)C2O)C(O)C1O)COC1OC(CO)C(OC2OC(CO)C(O)C(O)C2O)C(O)C1O (centres unmarked) [MNG-23] | 0.9 | 0.1162 |  |  |  |  |  |
| O=C(CCc1cc(C(F)(F)F)cc(C(F)(F)F)c1)NCC(CNC(=O)CCc1cc(C(F)(F)F)cc(C(F)(F)F)c1)(COC1OC(CO)C(OC2OC(CO)C(O)C(O)C2O)C(O)C1O)COC1OC(CO)C(OC2OC(CO)C(O)C(O)C2O)C(O)C1O (centres unmarked) [MNG-24] | 0.84 | 0.1108 |  |  |  |  |  |
| CC(C)(C)C1CCC(C(=O)NCC(CNC(=O)C2CCC(C(C)(C)C)CC2)(COC2OC(CO)C(OC3OC(CO)C(O)C(O)C3O)C(O)C2O)COC2OC(CO)C(OC3OC(CO)C(O)C(O)C3O)C(O)C2O)CC1 (centres unmarked) [MNG-26] | 0.12 | 0.0134 |  |  |  |  |  |
| CCCCCCCCCCCC(=O)NCC(CNC(=O)CCCCCCCCCCC)(COC1OC(CO)C(OC2OC(CO)C(O)C(O)C2O)C(O)C1O)COC1OC(CO)C(OC2OC(CO)C(O)C(O)C2O)C(O)C1O (centres unmarked) [MNG-27] | 0.008 | 0.0009 |  |  |  |  |  |
| CCCCCCCCCOCC(COCCCCCCCCC)(COC1OC(CO)C(OC2OC(CO)C(O)C(O)C2O)C(O)C1O)COC1OC(CO)C(OC2OC(CO)C(O)C(O)C2O)C(O)C1O (centres unmarked) [MNG-30] | 0.017 | 0.0018 |  |  |  |  |  |
| CCCCCCCCOCC(COCCCCCCCC)(COC1OC(CO)C(OC2OC(CO)C(O)C(O)C2O)C(O)C1O)COC1OC(CO)C(OC2OC(CO)C(O)C(O)C2O)C(O)C1O (centres unmarked) [MNG-31] | 0.034 | 0.0034 |  |  |  |  |  |
| CCCCC(CCCC)OCC(COC(CCCC)CCCC)(COC1OC(CO)C(OC2OC(CO)C(O)C(O)C2O)C(O)C1O)COC1OC(CO)C(OC2OC(CO)C(O)C(O)C2O)C(O)C1O (centres unmarked) [MNG-33] | 0.092 | 0.0095 |  |  |  |  |  |
| CCCCCCCCCCC(=O)NCCOC1OC(CO)C(OC2OC(CO)C(O)C(O)C2O)C(O)C1O (centres unmarked) [MPA-6] |  |  | −12.1 | 51.4 (n = 3)* |  |  | −12.1 |
| CCCCCCCCCCOCCOC1OC(CO)C(OC2OC(CO)C(O)C(O)C2O)C(O)C1O (centres unmarked) [MPA-11] |  |  | −4.7 | 58.8 (n = 3)* | −4.7 | 58.3 (n = 3) | −4.7 |
